These results are taken from ChEMBL document CHEMBL2069290, “Synthesis and biological evaluation of novel oxindole derivatives for imaging neurofibrillary tangles in Alzheimer's disease” (Bioorg Med Chem Lett, 2012).

The species named for data set [1] is Homo sapiens. The experiment in a line: Selectivity ratio of EC50 for amyloid beta(1 to 42) to EC50 for human Tau.
The test system of data set [2] is Brain. The data set is described as follows: Ratio of drug uptake in ddY mouse brain after 2 mins to drug uptake in ddY mouse brain after 30 mins. In kind it is ADME, tissue-based. The note with it: in vivo.
Data set [3] has as its target Microtubule-associated protein tau (Homo sapiens, UniProt P10636). The experiment in a line: Binding affinity to human Tau aggregates after 30 mins by Thioflavin-S-based fluorescence assay.
The target of data set [4] is Amyloid-beta precursor protein (Homo sapiens, UniProt P05067). The experiment in a line: Binding affinity to amyloid beta(1 to 42) aggregates after 30 mins by Thioflavin-S-based fluorescence assay.
The species named for data set [5] is Homo sapiens. The experiment in a line: Selectivity ratio of Ki for amyloid beta(1 to 42) to Ki for human Tau.
Data set [6] is filed under the species Homo sapiens. The experiment in a line: Selectivity ratio of Kd for amyloid beta(1 to 42) to Kd for human Tau.
Data set [7] relates to Blood. The experiment in a line: Biodistribution in ddY mouse blood at 3.3 to 6.7 kBq, iv after 2 mins by gamma counting. In kind it is ADME, organism-based. Particulars: in vivo.
Data set [8] concerns Blood. The data set is described as follows: Biodistribution in ddY mouse blood at 3.3 to 6.7 kBq, iv after 10 mins by gamma counting. In kind it is ADME, organism-based. Particulars: in vivo.
Data set [9] deals with Blood. The experiment in a line: Biodistribution in ddY mouse blood at 3.3 to 6.7 kBq, iv after 30 mins by gamma counting. The data set is classed as ADME, organism-based. The note with it: in vivo, 0.5 h.
Data set [10] concerns Blood. The experiment in a line: Biodistribution in ddY mouse blood at 3.3 to 6.7 kBq, iv after 60 mins by gamma counting. In kind it is ADME, organism-based. Particulars: in vivo, 1 h.
Data set [11] has as its system Liver. The experiment in a line: Biodistribution in ddY mouse liver at 3.3 to 6.7 kBq, iv after 2 mins by gamma counting. In kind it is ADME, organism-based. The note with it: in vivo.
Data set [12] relates to Liver. The experiment in a line: Biodistribution in ddY mouse liver at 3.3 to 6.7 kBq, iv after 10 mins by gamma counting. In kind it is ADME, organism-based. Particulars: in vivo.
The subject of data set [13] is Liver. The experiment in a line: Biodistribution in ddY mouse liver at 3.3 to 6.7 kBq, iv after 30 mins by gamma counting. In kind it is ADME, organism-based. Particulars: in vivo, 0.5 h.
Data set [14] relates to Liver. The data set is described as follows: Biodistribution in ddY mouse liver at 3.3 to 6.7 kBq, iv after 60 mins by gamma counting. In kind it is ADME, organism-based. Particulars: in vivo, 1 h.
The subject of data set [15] is Kidney. The experiment in a line: Biodistribution in ddY mouse kidney at 3.3 to 6.7 kBq, iv after 2 mins by gamma counting. In kind it is ADME, organism-based. Particulars: in vivo.
In data set [16] the test system is Kidney. The data set is described as follows: Biodistribution in ddY mouse kidney at 3.3 to 6.7 kBq, iv after 10 mins by gamma counting. In kind it is ADME, organism-based. Particulars: in vivo.
The subject of data set [17] is Kidney. The experiment in a line: Biodistribution in ddY mouse kidney at 3.3 to 6.7 kBq, iv after 30 mins by gamma counting. In kind it is ADME, organism-based. The note with it: in vivo, 0.5 h.
Data set [18] has as its system Kidney. The experiment in a line: Biodistribution in ddY mouse kidney at 3.3 to 6.7 kBq, iv after 60 mins by gamma counting. The data set is classed as ADME, organism-based. The note with it: in vivo, 1 h.
For data set [19], the system named is Intestine. The data set is described as follows: Biodistribution in ddY mouse intestine at 3.3 to 6.7 kBq, iv after 2 mins by gamma counting. In kind it is ADME, organism-based. The note with it: in vivo.
The test system of data set [20] is Intestine. The experiment in a line: Biodistribution in ddY mouse intestine at 3.3 to 6.7 kBq, iv after 10 mins by gamma counting. In kind it is ADME, organism-based. Particulars: in vivo.
For data set [21], the system named is Intestine. The data set is described as follows: Biodistribution in ddY mouse intestine at 3.3 to 6.7 kBq, iv after 30 mins by gamma counting. In kind it is ADME, organism-based. The note with it: in vivo, 0.5 h.
In data set [22] the test system is Intestine. The experiment in a line: Biodistribution in ddY mouse intestine at 3.3 to 6.7 kBq, iv after 60 mins by gamma counting. The data set is classed as ADME, organism-based. Particulars: in vivo, 1 h.
Data set [23] relates to Spleen. The experiment in a line: Biodistribution in ddY mouse spleen at 3.3 to 6.7 kBq, iv after 2 mins by gamma counting. The data set is classed as ADME, organism-based. Particulars: in vivo.
Data set [24] concerns Spleen. The data set is described as follows: Biodistribution in ddY mouse spleen at 3.3 to 6.7 kBq, iv after 10 mins by gamma counting. In kind it is ADME, organism-based. Particulars: in vivo.
Data set [25] concerns Spleen. The experiment in a line: Biodistribution in ddY mouse spleen at 3.3 to 6.7 kBq, iv after 30 mins by gamma counting. The data set is classed as ADME, organism-based. Particulars: in vivo, 0.5 h.
For data set [26], the system named is Spleen. The data set is described as follows: Biodistribution in ddY mouse spleen at 3.3 to 6.7 kBq, iv after 60 mins by gamma counting. The data set is classed as ADME, organism-based. Particulars: in vivo, 1 h.
Data set [27] concerns Pancreas. The experiment in a line: Biodistribution in ddY mouse pancreas at 3.3 to 6.7 kBq, iv after 2 mins by gamma counting. In kind it is ADME, organism-based. The note with it: in vivo.
Data set [28] has as its system Pancreas. The experiment in a line: Biodistribution in ddY mouse pancreas at 3.3 to 6.7 kBq, iv after 10 mins by gamma counting. The data set is classed as ADME, organism-based. The note with it: in vivo.
Data set [29] has as its system Pancreas. The data set is described as follows: Biodistribution in ddY mouse pancreas at 3.3 to 6.7 kBq, iv after 30 mins by gamma counting. The data set is classed as ADME, organism-based. The note with it: in vivo, 0.5 h.
Data set [30] has as its system Pancreas. The data set is described as follows: Biodistribution in ddY mouse pancreas at 3.3 to 6.7 kBq, iv after 60 mins by gamma counting. In kind it is ADME, organism-based. The note with it: in vivo, 1 h.
Data set [31] has as its system Heart. The data set is described as follows: Biodistribution in ddY mouse heart at 3.3 to 6.7 kBq, iv after 2 mins by gamma counting. The data set is classed as ADME, organism-based. The note with it: in vivo.
Data set [32] relates to Heart. The data set is described as follows: Biodistribution in ddY mouse heart at 3.3 to 6.7 kBq, iv after 10 mins by gamma counting. In kind it is ADME, organism-based. The note with it: in vivo.
The test system of data set [33] is Heart. The experiment in a line: Biodistribution in ddY mouse heart at 3.3 to 6.7 kBq, iv after 30 mins by gamma counting. The data set is classed as ADME, organism-based. The note with it: in vivo, 0.5 h.
In data set [34] the test system is Heart. The experiment in a line: Biodistribution in ddY mouse heart at 3.3 to 6.7 kBq, iv after 60 mins by gamma counting. In kind it is ADME, organism-based. Particulars: in vivo, 1 h.
In data set [35] the test system is Stomach. The data set is described as follows: Biodistribution in ddY mouse stomach assessed per organ at 3.3 to 6.7 kBq, iv after 2 mins by gamma counting. In kind it is ADME, organism-based. Particulars: in vivo.
Data set [36] has as its system Stomach. The data set is described as follows: Biodistribution in ddY mouse stomach assessed per organ at 3.3 to 6.7 kBq, iv after 10 mins by gamma counting. The note with it: in vivo. In kind it is ADME, organism-based.
Data set [37] deals with Stomach. The data set is described as follows: Biodistribution in ddY mouse stomach assessed per organ at 3.3 to 6.7 kBq, iv after 30 mins by gamma counting. The data set is classed as ADME, organism-based. Particulars: in vivo, 0.5 h.
Data set [38] relates to Stomach. The experiment in a line: Biodistribution in ddY mouse stomach assessed per organ at 3.3 to 6.7 kBq, iv after 60 mins by gamma counting. In kind it is ADME, organism-based. Particulars: in vivo, 1 h.
Data set [39] has as its system Brain. The experiment in a line: Biodistribution in ddY mouse brain at 3.3 to 6.7 kBq, iv after 2 mins by gamma counting. In kind it is ADME, organism-based. The note with it: in vivo.
The test system of data set [40] is Brain. The data set is described as follows: Biodistribution in ddY mouse brain at 3.3 to 6.7 kBq, iv after 10 mins by gamma counting. The data set is classed as ADME, organism-based. The note with it: in vivo.
The test system of data set [41] is Brain. The experiment in a line: Biodistribution in ddY mouse brain at 3.3 to 6.7 kBq, iv after 30 mins by gamma counting. The data set is classed as ADME, organism-based. The note with it: in vivo, 0.5 h.
Data set [42] relates to Brain. The experiment in a line: Biodistribution in ddY mouse brain at 3.3 to 6.7 kBq, iv after 60 mins by gamma counting. The data set is classed as ADME, organism-based. The note with it: in vivo, 1 h.

Microtubule-associated protein tau, sequence (P10636 whole entry): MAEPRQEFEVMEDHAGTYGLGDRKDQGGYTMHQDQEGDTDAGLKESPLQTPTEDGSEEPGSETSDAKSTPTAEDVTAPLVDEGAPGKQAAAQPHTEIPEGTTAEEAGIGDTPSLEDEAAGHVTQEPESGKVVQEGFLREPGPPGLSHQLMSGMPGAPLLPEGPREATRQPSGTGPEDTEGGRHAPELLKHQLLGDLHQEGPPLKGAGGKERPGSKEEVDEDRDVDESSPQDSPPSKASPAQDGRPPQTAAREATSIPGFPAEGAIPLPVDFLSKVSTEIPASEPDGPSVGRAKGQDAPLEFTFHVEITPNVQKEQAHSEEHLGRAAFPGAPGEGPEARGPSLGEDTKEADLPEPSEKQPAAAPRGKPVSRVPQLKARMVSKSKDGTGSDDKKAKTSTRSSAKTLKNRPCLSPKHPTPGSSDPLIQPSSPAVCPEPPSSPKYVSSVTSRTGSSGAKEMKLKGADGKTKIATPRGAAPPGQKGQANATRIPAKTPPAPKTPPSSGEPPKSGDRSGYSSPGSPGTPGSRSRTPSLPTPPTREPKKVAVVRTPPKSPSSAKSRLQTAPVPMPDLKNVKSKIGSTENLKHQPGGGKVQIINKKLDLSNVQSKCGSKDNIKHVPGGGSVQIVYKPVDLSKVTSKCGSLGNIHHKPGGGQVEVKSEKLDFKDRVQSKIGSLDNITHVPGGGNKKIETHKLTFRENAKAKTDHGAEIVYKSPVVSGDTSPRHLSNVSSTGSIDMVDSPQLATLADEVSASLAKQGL
Amyloid-beta precursor protein, sequence (P05067 whole entry): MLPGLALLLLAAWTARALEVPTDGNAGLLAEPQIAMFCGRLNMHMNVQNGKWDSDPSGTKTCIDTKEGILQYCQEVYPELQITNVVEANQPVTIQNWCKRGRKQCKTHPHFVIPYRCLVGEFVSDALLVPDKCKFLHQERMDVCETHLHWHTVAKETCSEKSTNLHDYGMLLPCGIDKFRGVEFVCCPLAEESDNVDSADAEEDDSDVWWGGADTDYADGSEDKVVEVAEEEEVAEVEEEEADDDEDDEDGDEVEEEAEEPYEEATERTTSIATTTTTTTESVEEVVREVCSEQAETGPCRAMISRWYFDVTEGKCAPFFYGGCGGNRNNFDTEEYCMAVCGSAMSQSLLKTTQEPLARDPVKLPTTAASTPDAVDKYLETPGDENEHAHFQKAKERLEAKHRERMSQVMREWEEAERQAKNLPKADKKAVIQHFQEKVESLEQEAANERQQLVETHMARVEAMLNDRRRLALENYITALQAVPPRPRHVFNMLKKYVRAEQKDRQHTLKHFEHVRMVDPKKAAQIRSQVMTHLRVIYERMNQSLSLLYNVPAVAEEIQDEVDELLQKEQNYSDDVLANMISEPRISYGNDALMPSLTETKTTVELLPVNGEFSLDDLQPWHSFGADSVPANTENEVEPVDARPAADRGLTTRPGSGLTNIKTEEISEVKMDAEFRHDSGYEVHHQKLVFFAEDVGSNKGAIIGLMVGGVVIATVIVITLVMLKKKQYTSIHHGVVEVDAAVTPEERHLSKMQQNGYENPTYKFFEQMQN

As to `CNc1ccc(-c2ccc3ccccc3n2)cc1`, in the data set listed under Homo sapiens [1], the Ratio EC50 was 1.65.

Consider `O=C1/C(=C/c2ccc(-c3cccc([125I])c3)o2)NC(=S)N1CCc1c[nH]cn1`, for which the Ratio in the data set on Brain [2] was determined as 2.33.

Turning to `CN(C)c1ccc(C=C2C(=O)Nc3ccc(I)cc32)cc1`, the Ki in data set [3] turned out to be 0.599 µM; in data set [4], 4.67 µM. For the same compound, the Ratio Ki in the data set filed under Homo sapiens [5] stood at 7.8.

For the compound `CN(C)c1ccc(/N=N/c2nc3ccc(OCCOCCOCCF)cc3s2)cc1`, the Ratio in the data set listed under Homo sapiens [6] amounted to 1.54.

Consider `CNc1ccc(/C=C2\Nc3ccc([125I])cc3C2=O)cc1`, for which the Drug uptake in the data set with Blood [7] is given as 7.5 % ID/g; with Blood [8], 4.97 % ID/g; in the data set on Blood [9], 3.3 % ID/g; with Blood [10] it was 1.95 % ID/g; in the data set with Liver [11] it was 9.51 % ID/g; in the data set with Liver [12], 12.4 % ID/g. In addition, the Drug uptake is 11.59 % ID/g with Liver [13]; 6.26 % ID/g in the data set with Liver [14]; 13.48 % ID/g in the data set on Kidney [15]; 18.16 % ID/g with Kidney [16]; 19.35 % ID/g with Kidney [17]; 10.01 % ID/g with Kidney [18]. In addition, the Drug uptake came out at 2.29 % ID/g in the data set with Intestine [19]; 4.24 % ID/g in the data set on Intestine [20]; 7.55 % ID/g in the data set on Intestine [21]; 9.86 % ID/g in the data set with Intestine [22]; 6.97 % ID/g in the data set on Spleen [23]; 9.67 % ID/g in the data set with Spleen [24]. Also, the Drug uptake with Spleen [25] turned out to be 14.05 % ID/g; with Spleen [26], 7.75 % ID/g; in the data set on Pancreas [27] it was 5.43 % ID/g; with Pancreas [28] it was 2.95 % ID/g; in the data set with Pancreas [29], 2.25 % ID/g; in the data set with Pancreas [30], 1.4 % ID/g. In addition, the Drug uptake came to 8.52 % ID/g with Heart [31]; 5.36 % ID/g with Heart [32]; 6.32 % ID/g with Heart [33]; 2.65 % ID/g in the data set on Heart [34]; 0.77 %ID in the data set with Stomach [35]; 1.7 %ID with Stomach [36]. The Drug uptake with Stomach [37] was found to be 2.96 %ID; with Stomach [38], 2.92 %ID; in the data set with Brain [39], 2.45 % ID/g; with Brain [40] it was 1.75 % ID/g; in the data set with Brain [41] it was 0.74 % ID/g; in the data set on Brain [42] it was 0.23 % ID/g. Besides, the Ratio in the data set on Brain [2] turned out to be 3.31.

As for `CN(C)c1ccc(/N=N/c2nc3ccc(OCCOCCOCC[18F])cc3s2)cc1`, the Ratio in the data set with Brain [2] was found to be 1.23.

For the compound `CNc1ccc(C=C2C(=O)Nc3ccc(I)cc32)cc1`, the results for the Ki in [3] and in [4] were 1.43 µM and 5.06 µM, respectively. The Ratio Ki in the data set listed under Homo sapiens [5] is 3.54.
